Test results taken from US8053553B2, “Targeting host proteinases as a therapeutic strategy against viral and bacterial pathogens” (Socpra Sciences Sante Et Humaines, priority 2007, dated 2011).
Non-standard residues stand in square brackets, D forms with d. Residues, ends and D or L forms follow the SMILES beside them. Nle = CCCC[C@H](N)C(=O)O; Ahx = NCCCCCC(=O)O; βAla = NCCC(=O)O; Sar = CNCC(=O)O

biological target: T1, furin (Homo sapiens, UniProt P09958); assay: biochemical; details: furin, Pyr-RTKR-AMC substrate; alanine scanning mutagenesis of the H5 furin cleavage sequence (Table 2); read-out: Ki
T1 construct: made in house; host or cells: Drosophila S2 cells (Invitrogen expression system)
T1 sequence (P09958 108-794 limits assumed): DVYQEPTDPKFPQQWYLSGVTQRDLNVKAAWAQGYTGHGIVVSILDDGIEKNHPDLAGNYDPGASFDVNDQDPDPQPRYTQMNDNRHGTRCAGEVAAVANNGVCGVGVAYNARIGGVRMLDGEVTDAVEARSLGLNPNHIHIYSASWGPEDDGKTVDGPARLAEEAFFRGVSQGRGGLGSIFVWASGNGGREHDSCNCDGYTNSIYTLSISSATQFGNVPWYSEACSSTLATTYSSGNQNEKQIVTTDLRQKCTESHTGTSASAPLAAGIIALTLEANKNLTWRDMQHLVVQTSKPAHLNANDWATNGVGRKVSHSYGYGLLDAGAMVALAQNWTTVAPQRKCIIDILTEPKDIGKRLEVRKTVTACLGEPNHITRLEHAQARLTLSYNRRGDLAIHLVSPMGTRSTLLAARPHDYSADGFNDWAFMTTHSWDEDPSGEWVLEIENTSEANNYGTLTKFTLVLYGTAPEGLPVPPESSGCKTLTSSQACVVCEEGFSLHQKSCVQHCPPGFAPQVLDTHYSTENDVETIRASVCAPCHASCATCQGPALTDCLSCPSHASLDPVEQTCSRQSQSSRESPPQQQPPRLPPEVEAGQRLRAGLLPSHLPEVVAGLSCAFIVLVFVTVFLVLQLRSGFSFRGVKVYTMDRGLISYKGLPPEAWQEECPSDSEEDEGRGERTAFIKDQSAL

`C[C@H](NC(=O)[C@H](C)NC(=O)[C@H](CCCNC(=N)N)NC(=O)[C@@H]1CCCN1C(=O)[C@@H](N)[C@@H](C)O)C(=O)N[C@@H](CCCNC(=N)N)C(=O)N[C@@H](CCCNC(=N)N)C(=O)N[C@@H](CCCCN)C(=O)N[C@@H](CCCCN)C(=O)N[C@@H](CCCNC(=N)N)C(N)=O` (H-TPRAARRKKR-NH2) and `C[C@H](NC(=O)[C@H](C)NC(=O)[C@H](CCCNC(=N)N)NC(=O)[C@@H]1CCCN1C(=O)[C@@H](N)[C@@H](C)O)C(=O)N[C@@H](CCCNC(=N)N)C(=O)N[C@@H](CCCNC(=N)N)C(=O)N[C@@H](CCCCN)C(=O)N[C@@H](CCCCN)C(=O)N[C@@H](CCCNC(=N)N)C(=O)NCC(N)=O` (H-TPRAARRKKRG-NH2) cannot be ordered by Ki: greater than 100 nM for the first, greater than 100 nM for the second.

`CC(C)[C@H](NC(=O)[C@H](CCCNC(=N)N)NC(=O)[C@H](CCCCN)NC(=O)[C@H](CCCCN)NC(=O)[C@H](CCCNC(=N)N)NC(=O)[C@H](CCCNC(=N)N)NC(=O)[C@H](C)NC(=O)[C@H](C)NC(=O)[C@H](CCCNC(=N)N)NC(=O)[C@@H]1CCCN1C(=O)[C@@H](N)[C@@H](C)O)C(N)=O` (H-TPRAARRKKRV-NH2) and `C[C@H](NC(=O)[C@H](C)NC(=O)[C@H](CCCNC(=N)N)NC(=O)[C@@H]1CCCN1C(=O)[C@@H](N)[C@@H](C)O)C(=O)N[C@@H](CCCNC(=N)N)C(=O)N[C@@H](CCCNC(=N)N)C(=O)N[C@@H](CCCCN)C(=O)N[C@@H](CCCCN)C(=O)N[C@@H](CCCNC(=N)N)C(=O)N(C)CC(N)=O` (H-TPRAARRKKR[Sar]-NH2) cannot be ordered by Ki: greater than 100 nM for the first, greater than 100 nM for the second.

`C[C@H](NC(=O)[C@H](C)NC(=O)[C@H](CCC(=O)O)NC(=O)[C@H](CCCNC(=N)N)NC(=O)[C@@H]1CCCN1C(=O)[C@@H](N)[C@@H](C)O)C(=O)N[C@@H](C)C(=O)N[C@@H](CCCCN)C(=O)N[C@@H](CCCCN)C(=O)N[C@@H](CCCNC(=N)N)C(N)=O` (H-TPREAAAKKR-NH2) gave a Ki greater than 100 nM.

same assay, conditions: furin, Pyr-RTKR-AMC substrate; optimization of the inhibitory peptides (Table 3); read-out: Ki

Compared with `C[C@H](NC(=O)[C@H](CCCNC(=N)N)NC(=O)[C@H](CCC(N)=O)NC(=O)[C@@H]1CCCN1C(=O)[C@@H](N)[C@@H](C)O)C(=O)N[C@@H](CCCNC(=N)N)C(=O)N[C@@H](CCCNC(=N)N)C(=O)N[C@@H](CCCNC(=N)N)C(=O)N[C@@H](CCCCN)C(=O)N[C@@H](CCCCN)C(=O)N[C@@H](CCCNC(=N)N)C(=O)N[C@@H](Cc1ccc(O)cc1)C(N)=O` (H-TPQRARRRKKRY-NH2), `C[C@@H](O)[C@H](N)C(=O)N1CCC[C@H]1C(=O)N[C@@H](CCC(N)=O)C(=O)N[C@@H](CCCNC(=N)N)C(=O)N[C@@H](Cc1ccc(O)cc1)C(=O)N[C@@H](CCCNC(=N)N)C(=O)N[C@@H](CCCNC(=N)N)C(=O)N[C@@H](CCCNC(=N)N)C(=O)N[C@@H](CCCCN)C(=O)N[C@@H](CCCCN)C(=O)N[C@@H](CCCNC(=N)N)C(=O)NCC(N)=O` (H-TPQRYRRRKKRG-NH2) is higher in Ki: 47 nM for the first, greater than 100 nM for the second.

`C[C@H](NC(=O)[C@H](CCCNC(=N)N)NC(=O)[C@H](CCC(N)=O)NC(=O)[C@@H]1CCCN1C(=O)[C@@H](N)[C@@H](C)O)C(=O)N[C@@H](CCCNC(=N)N)C(=O)N[C@@H](CCCNC(=N)N)C(=O)N[C@@H](CCCNC(=N)N)C(=O)N[C@@H](CCCCN)C(=O)N[C@@H](CCCCN)C(=O)N[C@@H](CCCNC(=N)N)C(=O)NCCCCCC(N)=O` (H-TPQRARRRKKR[Ahx]-NH2) and `C[C@H](NC(=O)[C@H](CCCNC(=N)N)NC(=O)[C@H](CCC(N)=O)NC(=O)[C@@H]1CCCN1C(=O)[C@@H](N)[C@@H](C)O)C(=O)N[C@@H](CCCNC(=N)N)C(=O)N[C@@H](CCCNC(=N)N)C(=O)N[C@@H](CCCNC(=N)N)C(=O)N[C@@H](CCCCN)C(=O)N[C@@H](CCCCN)C(=O)N[C@@H](CCCNC(=N)N)C(=O)NCCC(N)=O` (H-TPQRARRRKKR[βAla]-NH2) cannot be ordered by Ki: greater than 100 nM for the first, greater than 100 nM for the second.

`CCCC[C@H](NC(=O)[C@H](CCCNC(=N)N)NC(=O)[C@H](CCCCN)NC(=O)[C@H](CCCCN)NC(=O)[C@H](CCCNC(=N)N)NC(=O)[C@H](CCCNC(=N)N)NC(=O)[C@H](CCCNC(=N)N)NC(=O)[C@H](C)NC(=O)[C@H](CCCNC(=N)N)NC(=O)[C@H](CCC(N)=O)NC(=O)[C@@H]1CCCN1C(=O)[C@@H](N)[C@@H](C)O)C(N)=O` (H-TPQRARRRKKR[Nle]-NH2) and `C[C@H](NC(=O)[C@H](CCCNC(=N)N)NC(=O)[C@H](CCC(N)=O)NC(=O)[C@@H]1CCCN1C(=O)[C@@H](N)[C@@H](C)O)C(=O)N[C@@H](CCCNC(=N)N)C(=O)N[C@@H](CCCNC(=N)N)C(=O)N[C@@H](CCCNC(=N)N)C(=O)N[C@@H](CCCCN)C(=O)N[C@@H](CCCCN)C(=O)N[C@@H](CCCNC(=N)N)C(=O)N[C@H](CCCCN)C(N)=O` (H-TPQRARRRKKR[dK]-NH2) cannot be ordered by Ki: greater than 100 nM for the first, greater than 100 nM for the second.

`C[C@H](NC(=O)[C@H](CCCNC(=N)N)NC(=O)[C@H](CCC(N)=O)NC(=O)[C@@H]1CCCN1C(=O)[C@@H](N)[C@@H](C)O)C(=O)N[C@@H](CCCNC(=N)N)C(=O)N[C@@H](CCCNC(=N)N)C(=O)N[C@@H](CCCNC(=N)N)C(=O)N[C@@H](CCCCN)C(=O)N[C@@H](CCCCN)C(=O)N[C@@H](CCCNC(=N)N)C(=O)N[C@H](CCCNC(=N)N)C(N)=O` (H-TPQRARRRKKR[dR]-NH2) and `C[C@@H](O)[C@H](N)C(=O)N1CCC[C@H]1C(=O)N[C@@H](CCC(N)=O)C(=O)N[C@@H](CCCNC(=N)N)C(=O)N[C@@H](CCC(N)=O)C(=O)N[C@@H](CCCNC(=N)N)C(=O)N[C@@H](CCCNC(=N)N)C(=O)N[C@@H](CCCNC(=N)N)C(=O)N[C@@H](CCCCN)C(=O)N[C@@H](CCCCN)C(=O)N[C@@H](CCCNC(=N)N)C(=O)NCC(N)=O` (H-TPQRQRRRKKRG-NH2) cannot be ordered by Ki: greater than 100 nM for the first, greater than 100 nM for the second.

`C[C@@H](O)[C@H](N)C(=O)N1CCC[C@H]1C(=O)N[C@@H](CCC(N)=O)C(=O)N[C@@H](CCCNC(=N)N)C(=O)N[C@@H](CC(=O)O)C(=O)N[C@@H](CCCNC(=N)N)C(=O)N[C@@H](CCCNC(=N)N)C(=O)N[C@@H](CCCNC(=N)N)C(=O)N[C@@H](CCCCN)C(=O)N[C@@H](CCCCN)C(=O)N[C@@H](CCCNC(=N)N)C(=O)NCC(N)=O` (H-TPQRDRRRKKRG-NH2) and `C[C@@H](O)[C@H](N)C(=O)N1CCC[C@H]1C(=O)N[C@@H](CCC(N)=O)C(=O)N[C@@H](CCCNC(=N)N)C(=O)N[C@@H](CC(N)=O)C(=O)N[C@@H](CCCNC(=N)N)C(=O)N[C@@H](CCCNC(=N)N)C(=O)N[C@@H](CCCNC(=N)N)C(=O)N[C@@H](CCCCN)C(=O)N[C@@H](CCCCN)C(=O)N[C@@H](CCCNC(=N)N)C(=O)NCC(N)=O` (H-TPQRNRRRKKRG-NH2) cannot be ordered by Ki: greater than 100 nM for the first, greater than 100 nM for the second.

`C[C@@H](O)[C@H](N)C(=O)N1CCC[C@H]1C(=O)N[C@@H](CCC(N)=O)C(=O)N[C@@H](CCCNC(=N)N)C(=O)N[C@@H](Cc1ccccc1)C(=O)N[C@@H](CCCNC(=N)N)C(=O)N[C@@H](CCCNC(=N)N)C(=O)N[C@@H](CCCNC(=N)N)C(=O)N[C@@H](CCCCN)C(=O)N[C@@H](CCCCN)C(=O)N[C@@H](CCCNC(=N)N)C(=O)NCC(N)=O` (H-TPQRFRRRKKRG-NH2) and `C[C@@H](O)[C@H](N)C(=O)N1CCC[C@H]1C(=O)N[C@@H](CCC(N)=O)C(=O)N[C@@H](CCCNC(=N)N)C(=O)N[C@@H](Cc1c[nH]c2ccccc12)C(=O)N[C@@H](CCCNC(=N)N)C(=O)N[C@@H](CCCNC(=N)N)C(=O)N[C@@H](CCCNC(=N)N)C(=O)N[C@@H](CCCCN)C(=O)N[C@@H](CCCCN)C(=O)N[C@@H](CCCNC(=N)N)C(=O)NCC(N)=O` (H-TPQRWRRRKKRG-NH2) cannot be ordered by Ki: greater than 100 nM for the first, greater than 100 nM for the second.

`C[C@@H](O)[C@H](N)C(=O)N1CCC[C@H]1C(=O)N[C@@H](CCC(N)=O)C(=O)N[C@@H](CCCNC(=N)N)C(=O)NCC(=O)N[C@@H](CCCNC(=N)N)C(=O)N[C@@H](CCCNC(=N)N)C(=O)N[C@@H](CCCNC(=N)N)C(=O)N[C@@H](CCCCN)C(=O)N[C@@H](CCCCN)C(=O)N[C@@H](CCCNC(=N)N)C(=O)NCC(N)=O` (H-TPQRGRRRKKRG-NH2) and `C[C@@H](O)[C@H](N)C(=O)N1CCC[C@H]1C(=O)N[C@@H](CCC(N)=O)C(=O)N[C@@H](CCCNC(=N)N)C(=O)N[C@@H](CO)C(=O)N[C@@H](CCCNC(=N)N)C(=O)N[C@@H](CCCNC(=N)N)C(=O)N[C@@H](CCCNC(=N)N)C(=O)N[C@@H](CCCCN)C(=O)N[C@@H](CCCCN)C(=O)N[C@@H](CCCNC(=N)N)C(=O)NCC(N)=O` (H-TPQRSRRRKKRG-NH2) cannot be ordered by Ki: greater than 100 nM for the first, greater than 100 nM for the second.

`C[C@@H](O)[C@H](N)C(=O)N1CCC[C@H]1C(=O)N[C@@H](CCC(N)=O)C(=O)N[C@@H](CCCNC(=N)N)C(=O)N[C@@H](Cc1c[nH]cn1)C(=O)N[C@@H](CCCNC(=N)N)C(=O)N[C@@H](CCCNC(=N)N)C(=O)N[C@@H](CCCNC(=N)N)C(=O)N[C@@H](CCCCN)C(=O)N[C@@H](CCCCN)C(=O)N[C@@H](CCCNC(=N)N)C(=O)NCC(N)=O` (H-TPQRHRRRKKRG-NH2) and `C[C@@H](O)[C@H](N)C(=O)N1CCC[C@H]1C(=O)N[C@@H](CCC(N)=O)C(=O)N[C@@H](CCCNC(=N)N)C(=O)N[C@H](C(=O)N[C@@H](CCCNC(=N)N)C(=O)N[C@@H](CCCNC(=N)N)C(=O)N[C@@H](CCCNC(=N)N)C(=O)N[C@@H](CCCCN)C(=O)N[C@@H](CCCCN)C(=O)N[C@@H](CCCNC(=N)N)C(=O)NCC(N)=O)[C@@H](C)O` (H-TPQRTRRRKKRG-NH2) cannot be ordered by Ki: greater than 100 nM for the first, greater than 100 nM for the second.

`CC[C@H](C)[C@H](NC(=O)[C@H](CCCNC(=N)N)NC(=O)[C@H](CCC(N)=O)NC(=O)[C@@H]1CCCN1C(=O)[C@@H](N)[C@@H](C)O)C(=O)N[C@@H](CCCNC(=N)N)C(=O)N[C@@H](CCCNC(=N)N)C(=O)N[C@@H](CCCNC(=N)N)C(=O)N[C@@H](CCCCN)C(=O)N[C@@H](CCCCN)C(=O)N[C@@H](CCCNC(=N)N)C(=O)NCC(N)=O` (H-TPQRIRRRKKRG-NH2) and `CC(C)[C@H](NC(=O)[C@H](CCCNC(=N)N)NC(=O)[C@H](CCC(N)=O)NC(=O)[C@@H]1CCCN1C(=O)[C@@H](N)[C@@H](C)O)C(=O)N[C@@H](CCCNC(=N)N)C(=O)N[C@@H](CCCNC(=N)N)C(=O)N[C@@H](CCCNC(=N)N)C(=O)N[C@@H](CCCCN)C(=O)N[C@@H](CCCCN)C(=O)N[C@@H](CCCNC(=N)N)C(=O)NCC(N)=O` (H-TPQRVRRRKKRG-NH2) cannot be ordered by Ki: greater than 100 nM for the first, greater than 100 nM for the second.

`C[C@@H](O)[C@H](N)C(=O)N1CCC[C@H]1C(=O)N[C@@H](CCC(N)=O)C(=O)N[C@@H](CCCNC(=N)N)C(=O)N1CCC[C@H]1C(=O)N[C@@H](CCCNC(=N)N)C(=O)N[C@@H](CCCNC(=N)N)C(=O)N[C@@H](CCCNC(=N)N)C(=O)N[C@@H](CCCCN)C(=O)N[C@@H](CCCCN)C(=O)N[C@@H](CCCNC(=N)N)C(=O)NCC(N)=O` (H-TPQRPRRRKKRG-NH2) was tested, and the Ki was greater than 100 nM.
